These results are taken from patent US6881421B1 (Bioalliance Pharma S.A., priority 1998, dated 2005).

In brackets after ≈: the same amount, converted by molar mass.

A short description of data set [1]: Titration of progesterone/steroid content of nanoparticles by HPLC. Format: physicochemical. The settings on record: for Drug load: average of 3 values; for Increase in content load (number of times): PIBCA/HP CD particles versus PIBCA without HP CD; for Content of combined PIBCA and HP CD particles / Content of PIBCA nanoparticles without HP CD: average of three preparations; for Content of PIBCA nanoparticles without HP CD: reference particles. As to the method: (§1) The different suspensions of nanoparticles were centrifuged at 82,000 g for 30 to 40 min at 25° C. (Beckman, L5-65 Ultracentrifuge, 70.1 Ti type rotor) and resuspended in 5 ml distilled water. The suspensions were finally freeze-dried (Christ HED Freeze Drier, Germany).
To titrate the progesterone content in the nanoparticles, the freeze-dried products were diluted in acetonitrile of HPLC grade and the solutions analyzed by high performance liquid chromatography (HPLC). The HPLC system consisted of a 510 solvent delivery unit (Waters-Saint-Quentin-en-Yvelines, France), a WISP 712 automatic sampler, a column Nova-Pak C18 4 μm column (250×4.6 mm), a 486 absorbency detector which operated at 245 NM and interfaced with a 746 data module. The flow rate was 1.0 ml/min and the mobile phase made up of water and acetonitrile (40:60) for which the retention time was approximately 12 min. The results were expressed as an average of three titrations.
The different steroids were determined as in Example 6 so that the titration of these different substances was conducted under the same analytical conditions.

For data set [2] the following is noted: cited from earlier work.
A short description of data set [3]: In vitro release of progesterone from PIBCA/HPβCD nanoparticles. Format: physicochemical. The following applies: for progesterone released, second slower phase / progesterone released, initial rapid release: ABB pH 8.4, 37° C.; for progesterone released, initial rapid release: first hour; for progesterone released: ABB with 40% PEG 400. On the procedure:
A weighed quantity of freeze-dried nanoparticles (containing 1% (w/v) of glucose) was placed in a bottle containing 15 ml of alkaline borate buffer solution (ABB) (pH 8.4) or of ABB containing esterases (25 and 100 IU) or of ABB/poly(ethyleneglycol) 400 (PEG) at 20 and 40% (v/v). The samples were magnetically stirred at 200 r/min and 37° C., and taken at predetermined intervals. The suspensions were centrifuged at 82,000 g for 30 minutes at 20° C., then the progesterone content of the supernatant is determined for all media and the HPβCD content for the PEG media. The progesterone content is determined using HPLC as described above with injection of 100 μl for the samples incubated in ABB media and 20 μl for the PEG media.
All the tests are conducted under conditions such 15 that the active ingredient concentration during the release stage is maintained below 10% saturation.

Data set [4] can be described thus: Solubility of progesterone. Format: physicochemical. The following applies: polymerization medium, aqueous with cosolvent or surfactant or cyclodextrin; diluted hydrochloric acid (pH 2.0), 1% (w/v) poloxamer 188; read-out: maximum solubility in the polymerization medium.
A short description of data set [5]: Titration of cyclodextrin content of nanoparticles (phenolphthalein spectrophotometry). Format: physicochemical. As to the method:
as §1
For quantification of HPβCD, the freeze-dried nanoparticles were hydrolyzed with 0.2 M NaOH for 12 hours, the pH adjusted to 7.0 (±0.5) and the HPBCD quantified by spectrophotometric titration of the discoloring of phenolphthalein solutions in the presence of HPβCD. Phenolphthalein formed stable, colorless inclusion complexes with cyclodextrins (CD). Consequently, the color intensity of a phenolphthalein solution in alkaline borate buffer decreased in proportion to the quantity of CD in solution.
Reference solutions were prepared by diluting mother solutions of CD in alkaline borate buffer solution with pH 10.0 containing 2% ethanol solution of 0.006 M phenolphthalein. The reference curves (λ=550 nm) are linear for CD concentrations ranging from 1 to 100 μg/ml. To the samples were added 4 parts buffer solution containing phenolphthalein and they were then tested directly.
The HPβCD was also titrated as in Example 6.

A short description of data set [6]: In vitro release of HPβCD from PIBCA/HPβCD nanoparticles. Format: physicochemical. The settings on record: ABB medium, 37° C.; during the first hour. On the procedure: Study of the release of HPBCD was conducted as for progesterone in ABB medium with quantification of the CD content after ultracentrifuging, by complexation with phenolphthalein as described above. The CD concentration at 100% release was approximately 100 μg/ml.

[7] abbreviates: PIBCA nanoparticles without HPβCD.
[8] abbreviates: PIBCA/HPBCD nanoparticles (10 mg/ml HPβCD).

On to `CC(=O)O[C@]1(C(C)=O)CC[C@H]2[C@@H]3C=C(C)C4=CC(=O)CC[C@]4(C)[C@H]3CC[C@@]21C` [Megestrolacetate, megestrol acetate], for which the “Drug load” value in data set [1] (setting [7]) was found to be 0.25 mg/g. In addition, in data set [1], the “Increase in content load (number of times)” value (“Increase in content load” below) is 5.6 number of times; the “Content of combined PIBCA and HP CD particles” value is 3.64 mmol/g; the “Content of PIBCA nanoparticles without HP CD” value worked out at 0.65 mmol/g. The “Drug load” value in data set [1] (setting [8]) is recorded as 1.4 mg/g.

Turning to `C[C@]12C=CC(=O)C=C1CC[C@@H]1[C@@H]2[C@@H](O)C[C@@]2(C)[C@H]1CC[C@]2(O)C(=O)CO` [Prednisolone, prednisolone], the “Drug load” value in data set [1] (setting [7]) is on record as 0.12 mg/g. Moreover, in data set [1], the “Increase in content load” value was 129.2 number of times; the “Content of combined PIBCA and HP CD particles” value came to 43.00 mmol/g; the “Content of PIBCA nanoparticles without HP CD” value turned out to be 0.33 mmol/g. In data set [1] (listed as prednisolone), the “Increase in content load” value is recorded as 129 number of times. Moreover, in data set [1] (setting [8]), the “Drug load” value is given as 15.5 mg/g.

Regarding `CC(=O)[C@H]1CC[C@H]2[C@@H]3CCC4=CC(=O)CC[C@]4(C)[C@H]3CC[C@]12C` [Progesterone, progesterone], the water-solubility in data set [2] is 0.01 mg/mL. Besides, in data set [1] (setting [7]), the “Drug load” value is listed as 0.79 mg/g. Also, in data set [1], the “Increase in content load” value is recorded as 27.7 number of times; the “Content of combined PIBCA and HP CD particles” value amounted to 69.60 mmol/g; the “Content of PIBCA nanoparticles without HP CD” value came out at 2.51 mmol/g. The “Drug load” value in data set [1] (setting [8]) amounted to 24.0 mg/g. In data set [1] (larger particles (170 nm)), this compound returned a progesterone content of 10.5 µg/mg. The “progesterone content of particles” value in data set [1] (prepared in the presence of HPβCD, highest content (FIG. 5)) was 45 μg/mg of particles. Moreover, in data set [1] (smallest nanoparticles (70 nm)), the active ingredient content came to 24 µg/mg. For the same compound, in data set [3] (70 nm nanoparticles), the “progesterone released, second slower phase” value is reported as approximately 62% and the “progesterone released, initial rapid release” value was approximately 34%. In addition, in data set [3] (150 nm nanoparticles), the “progesterone released, second slower phase” value was “approximately 35%” and the “progesterone released, initial rapid release” value is listed as “approximately 10%”. The progesterone released result in data set [3] (first-named formulation (150 nm)) is “approximately 75%”. Also, the progesterone released in data set [3] (second-named formulation (70 nm)) is listed as approximately 82%. Moreover, the “quantity of released progesterone” value in data set [3] (ABB with esterases (25 and 100 IU), both tested formulations) was approximately 100%. In addition, the solubility in data set [4] was approximately 0.06 mg/mL (≈ 191 µM).

For the compound `C#C[C@]1(O)CC[C@H]2[C@@H]3CCC4=Cc5oncc5C[C@]4(C)[C@H]3CC[C@@]21C` [Danazol, danazol], the “Drug load” value in data set [1] (setting [7]) came to 0.34 mg/g. Besides, in data set [1], the “Increase in content load” value is 32.9 number of times; the “Content of combined PIBCA and HP CD particles” value was 33.19 mmol/g; the “Content of PIBCA nanoparticles without HP CD” value was found to be 1.01 mmol/g. In addition, the “Drug load” value in data set [1] (setting [8]) is on record as 11.2 mg/g.

As to `CC(=O)S[C@@H]1CC2=CC(=O)CC[C@]2(C)[C@H]2CC[C@@]3(C)[C@@H](CC[C@@]34CCC(=O)O4)[C@H]12` [Spironolactone, spironolactone], in data set [1] (setting [7]), the “Drug load” value was 7.65 mg/g. Moreover, in data set [1], the “Increase in content load” value is reported as 6.9 number of times; the “Content of combined PIBCA and HP CD particles” value was found to be 127.23 mmol/g; the “Content of PIBCA nanoparticles without HP CD” value was 18.36 mmol/g. In addition, in data set [1] (setting [8]), the “Drug load” value worked out at 53.0 mg/g.

Turning to `CC(O)COC[C@H]1O[C@@H]2O[C@H]3[C@H](O)[C@@H](O)[C@@H](O[C@H]4[C@H](O)[C@@H](O)[C@@H](O[C@H]5[C@H](O)[C@@H](O)[C@@H](O[C@H]6[C@H](O)[C@@H](O)[C@@H](O[C@H]7[C@H](O)[C@@H](O)[C@@H](O[C@H]8[C@H](O)[C@@H](O)[C@@H](O[C@H]1[C@H](O)[C@H]2O)O[C@@H]8COCC(C)O)O[C@@H]7COCC(C)O)O[C@@H]6COCC(C)O)O[C@@H]5COCC(C)O)O[C@@H]4COCC(C)O)O[C@@H]3COCC(C)O` (stereo partly drawn) [HPβCD, 2-hydroxypropyl-β-cyclodextrin], the “quantity of HPβCD associated with the particles” value in data set [5] (equal initial masses of HPβCD and isobutylcyanoacrylate in the polymerization medium) is on record as “approximately 35%”; in data set [5] (maximum reached with increasing HPβCD (FIG. 3)), “about 60 % of particle weight”. The cyclodextrin released in data set [6] is recorded as approximately 100%.

With `C[C@]12CCC(=O)C=C1CC[C@@H]1[C@@H]2[C@@H](O)C[C@@]2(C)[C@H]1CC[C@]2(O)C(=O)CO` [Hydrocortisone, hydrocortisone], the “Drug load” value in data set [1] (setting [7]) is reported as 2.19 mg/g. In data set [1], the “Increase in content load” value was 7.0 number of times; the “Content of combined PIBCA and HP CD particles” value stood at 42.21 mmol/g; the “Content of PIBCA nanoparticles without HP CD” value stood at 6.04 mmol/g. In data set [1] (setting [8]), the “Drug load” value worked out at 15.3 mg/g.

For `C[C@]12CC[C@H]3[C@@H](CCC4=CC(=O)CC[C@@]43C)[C@@H]1CC[C@@H]2O` [Testosterone, testosterone], the “Drug load” value in data set [1] (setting [7]) amounted to 2.27 mg/g. Also, in data set [1], the “Increase in content load” value is reported as 8.6 number of times; the “Content of combined PIBCA and HP CD particles” value was 67.6 mmol/g; the “Content of PIBCA nanoparticles without HP CD” value turned out to be 7.87 mmol/g. Moreover, the “Drug load” value in data set [1] (setting [8]) was 19.5 mg/g.
